From patent US10168342B2, “Lipid probes and uses thereof” (THE SCRIPPS RESEARCH INSTITUTE, priority 2015, dated 2019)

Legend:
Assay in all cases: In situ competitive SILAC profiling with A-DA probe in (PMA-stimulated) A549 cells
Conditions in all cases: A549 cells, A-DA probe
[1] = target: T1, A-DA lipid probe targets in A549 cells (Homo sapiens, UniProt P45880)
T1 sequence (P45880 1-294): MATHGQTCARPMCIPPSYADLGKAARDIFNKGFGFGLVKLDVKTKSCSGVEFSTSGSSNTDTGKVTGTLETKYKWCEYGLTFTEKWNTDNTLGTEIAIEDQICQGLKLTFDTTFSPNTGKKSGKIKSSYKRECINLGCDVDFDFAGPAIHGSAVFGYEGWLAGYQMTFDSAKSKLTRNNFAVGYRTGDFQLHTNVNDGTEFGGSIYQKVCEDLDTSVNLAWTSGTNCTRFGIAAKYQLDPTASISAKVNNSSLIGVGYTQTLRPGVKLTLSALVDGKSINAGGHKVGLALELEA

[2] = target: T2, A-DA lipid probe targets in A549 cells (Homo sapiens, UniProt P67812)
T2 sequence (P67812 1-179): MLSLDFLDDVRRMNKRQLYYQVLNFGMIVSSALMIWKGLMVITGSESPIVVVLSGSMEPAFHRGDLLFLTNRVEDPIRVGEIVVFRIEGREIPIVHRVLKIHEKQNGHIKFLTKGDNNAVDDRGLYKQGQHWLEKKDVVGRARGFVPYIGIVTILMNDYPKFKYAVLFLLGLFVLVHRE

[3] = target: T3, A-DA lipid probe targets in A549 cells (Homo sapiens, UniProt Q53GQ0)
T3 sequence (Q53GQ0 1-312): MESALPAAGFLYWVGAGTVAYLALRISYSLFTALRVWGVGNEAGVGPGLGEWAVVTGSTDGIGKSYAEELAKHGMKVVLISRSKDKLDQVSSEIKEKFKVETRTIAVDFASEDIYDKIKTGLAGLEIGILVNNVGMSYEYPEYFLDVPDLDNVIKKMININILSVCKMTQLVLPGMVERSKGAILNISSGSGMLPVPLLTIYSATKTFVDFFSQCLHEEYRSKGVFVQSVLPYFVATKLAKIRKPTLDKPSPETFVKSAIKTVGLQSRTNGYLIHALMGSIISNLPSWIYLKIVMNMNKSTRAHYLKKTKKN

[4] = target: T4, A-DA lipid probe targets in A549 cells (Homo sapiens, UniProt Q6P1A2)
T4 sequence (Q6P1A2 1-487): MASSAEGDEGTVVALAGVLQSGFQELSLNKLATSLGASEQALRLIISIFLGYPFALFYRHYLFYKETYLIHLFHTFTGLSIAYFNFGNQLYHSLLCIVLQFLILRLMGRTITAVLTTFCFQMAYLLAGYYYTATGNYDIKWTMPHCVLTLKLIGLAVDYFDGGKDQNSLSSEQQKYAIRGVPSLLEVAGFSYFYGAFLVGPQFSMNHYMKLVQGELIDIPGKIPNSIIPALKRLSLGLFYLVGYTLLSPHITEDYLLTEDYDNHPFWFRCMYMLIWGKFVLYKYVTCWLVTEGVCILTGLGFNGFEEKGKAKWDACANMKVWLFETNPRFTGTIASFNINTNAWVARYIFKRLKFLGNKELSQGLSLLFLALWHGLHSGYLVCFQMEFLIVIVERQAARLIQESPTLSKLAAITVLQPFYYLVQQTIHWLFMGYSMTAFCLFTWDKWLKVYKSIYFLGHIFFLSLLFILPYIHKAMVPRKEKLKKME

[5] = target: T5, A-DA lipid probe targets in A549 cells (Homo sapiens, UniProt Q8N5I4)
T5 sequence (Q8N5I4 1-330): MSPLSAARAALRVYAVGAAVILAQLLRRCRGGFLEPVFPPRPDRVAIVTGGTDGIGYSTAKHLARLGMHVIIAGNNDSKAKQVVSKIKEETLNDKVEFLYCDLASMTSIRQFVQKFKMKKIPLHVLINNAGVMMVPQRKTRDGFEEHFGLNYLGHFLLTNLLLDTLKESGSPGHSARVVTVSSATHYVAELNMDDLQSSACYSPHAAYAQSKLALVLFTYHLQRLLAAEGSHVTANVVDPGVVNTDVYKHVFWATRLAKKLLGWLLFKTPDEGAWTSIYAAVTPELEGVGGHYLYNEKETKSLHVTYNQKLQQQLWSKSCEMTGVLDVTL

[6] = target: T6, A-DA lipid probe targets in A549 cells (Homo sapiens, UniProt Q99536)
T6 sequence (Q99536 1-393): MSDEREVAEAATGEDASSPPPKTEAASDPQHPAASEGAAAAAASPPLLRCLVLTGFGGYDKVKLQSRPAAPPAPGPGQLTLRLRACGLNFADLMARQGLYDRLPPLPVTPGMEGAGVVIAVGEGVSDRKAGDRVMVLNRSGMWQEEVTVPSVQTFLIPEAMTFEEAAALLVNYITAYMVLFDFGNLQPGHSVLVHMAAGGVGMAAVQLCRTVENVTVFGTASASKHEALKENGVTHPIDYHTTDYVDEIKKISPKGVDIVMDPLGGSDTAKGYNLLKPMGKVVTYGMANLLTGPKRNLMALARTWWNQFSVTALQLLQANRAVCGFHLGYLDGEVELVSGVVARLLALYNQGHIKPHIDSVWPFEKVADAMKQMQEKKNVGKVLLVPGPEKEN

[7] = target: A-DA lipid probe targets in A549 cells (Homo sapiens, UniProt Q9H6K4)
Sequence of A-DA lipid probe targets in A549 cells (Homo sapiens, UniProt Q9H6K4) (Q9H6K4 whole entry): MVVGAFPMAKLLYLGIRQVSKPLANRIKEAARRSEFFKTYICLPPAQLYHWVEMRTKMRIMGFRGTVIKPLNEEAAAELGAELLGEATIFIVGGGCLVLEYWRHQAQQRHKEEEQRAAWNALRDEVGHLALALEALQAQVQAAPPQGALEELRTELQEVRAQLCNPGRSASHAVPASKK

Compound | SILAC ratio, VDAC2 (P45880) ([1]; competitor 25 μM) | SILAC ratio, SEC11A (P67812) ([2]; competitor 25 μM) | SILAC ratio, HSD17B12 (Q53GQ0) ([3]; competitor 25 μM) | SILAC ratio, LPCAT3 (Q6P1A2) ([4]; competitor 25 μM) | SILAC ratio, DHRSX (Q8N5I4) ([5]; competitor 25 μM) | SILAC ratio, VAT1 (Q99536) ([6]; competitor 25 μM) | SILAC ratio, OPA3 (Q505D7) ([7]; competitor 25 μM) | SILAC ratio, VDAC2 (P45880) ([1]; competitor 5 μM) | SILAC ratio, VDAC2 (P45880) ([1]; competitor 50 μM) | SILAC ratio, SEC11A (P67812) ([2]; competitor 5 μM) | SILAC ratio, SEC11A (P67812) ([2]; competitor 50 μM) | SILAC ratio, HSD17B12 (Q53GQ0) ([3]; competitor 5 μM) | SILAC ratio, HSD17B12 (Q53GQ0) ([3]; competitor 50 μM) | SILAC ratio, LPCAT3 (Q6P1A2) ([4]; competitor 5 μM) | SILAC ratio, LPCAT3 (Q6P1A2) ([4]; competitor 50 μM) | SILAC ratio, DHRSX (Q8N5I4) ([5]; competitor 5 μM) | SILAC ratio, DHRSX (Q8N5I4) ([5]; competitor 50 μM) | SILAC ratio, VAT1 (Q99536) ([6]; competitor 5 μM) | SILAC ratio, VAT1 (Q99536) ([6]; competitor 50 μM) | SILAC ratio, OPA3 (Q505D7) ([7]; competitor 5 μM)
O=C(/C=C/c1cccnc1)NCCCCC1CCN(C(=O)c2ccccc2)CC1 [FK-866, reference compound] | 1.2 | 1.2 | 1.4 | 3.3 | 1.4 | 4.0 | 1.3 | – | – | – | – | – | – | – | – | – | – | – | – | –
C=CCN(C)CCCCCCOc1ccc(C(=O)c2ccc(Br)cc2)c(F)c1 [Ro488071] | – | – | – | – | – | – | – | 1.5 | 3.4 | 1.5 | 3.3 | 1.4 | 3.0 | 1.3 | 2.7 | 1.6 | 2.7 | 1.4 | 2.5 | 1.8
